Laboratory results reported in PubChem BioAssay (NCI).
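Tested at 5 concentrations; 48 h exposure; 96-well plates; endpoints linearly interpolated, else capped at highest concentration. GI50 marks 50% less growth. TGI denotes the concentration required for complete inhibition of growth.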

Experiments:
Experiment in all cases: NCI anticancer screen, dose series, 48 h
[1] = system: RPMI-8226 leukemia
[2] = system: OVCAR-5 ovarian
[3] = system: K-562 leukemia
[4] = system: MCF7 breast
[5] = system: OVCAR-8 ovarian
[6] = system: RXF 393 renal
[7] = system: UO-31 renal
[8] = system: HCC-2998 colon
[9] = system: COLO 205 colon
[10] = system: BT-549 breast

Compound	TGI [1] [µM]	TGI [2] [µM]	TGI [3] [µM]	TGI [4] [µM]	TGI [5] [µM]	TGI [6] [µM]	TGI [7] [µM]	TGI [8] [µM]	TGI [9] [µM]	TGI [10] [µM]	GI50 [1] [µM]	GI50 [3] [µM]	GI50 [4] [µM]	GI50 [5] [µM]	GI50 [6] [µM]	GI50 [7] [µM]	GI50 [8] [µM]	GI50 [9] [µM]	GI50 [10] [µM]
COc1ccc(Cl)cc1NC(=O)O/N=C(\Cl)C(C)C	4.61	34.2	7.59	38.6	32.7	17.4	28.5	35.7	3.5	6.9	–	–	–	–	–	–	–	–	–
N#CC1=C(N)OC2=C(CCCc3ccc([N+](=O)[O-])cc32)C1c1ccc(Cl)cc1 (stereo not drawn)	32	> 100	> 100	22.6	62.6	19.5	> 100	52.3	> 100	75.3	–	–	–	–	–	–	–	–	–
COC(=O)C(=O)C(C(=O)C(=O)Nc1cc(C)ccc1C)c1nc2ccccc2[nH]c1=O (stereo not drawn)	71.4	> 100	> 100	> 100	> 100	> 100	> 100	> 100	> 100	> 100	–	–	–	–	–	–	–	–	–
Clc1ccc(Cc2nc3cc(Cl)c(Cl)cc3n2CC2CCCN3CCCCC23)cc1 (stereo not drawn)	> 100	26	> 100	28.3	26.1	37.6	1.6	14.6	22.3	26.1	–	–	–	–	–	–	–	–	–
CCOC(=O)c1cccc(N=NNc2cccc(C(=O)OCC)c2)c1	> 100	> 100	> 100	> 100	91.8	62.9	45.6	> 100	> 100	> 100	–	–	–	–	–	–	–	–	–
COc1ccc(/C=C(\C#N)c2ccccn2)cc1OC	> 100	> 100	> 100	72.6	> 100	> 100	82.2	> 100	> 100	45.4	–	–	–	–	–	–	–	–	–
CCOC(=O)c1c(N2CCN(C)CC2)[nH]c(=O)c(C(c2c(Cl)cccc2Cl)c2c(O)c(C(=O)OCC)c(N3CCN(C)CC3)[nH]c2=O)c1O	> 100	> 100	86.8	> 100	45	38.8	39.1	78.1	> 100	40.8	–	–	–	–	–	–	–	–	–
O=C(NCC(O)COc1ccccc1)c1ccccc1O (stereo not drawn)	> 100	> 100	> 100	> 100	> 100	> 100	> 100	> 100	> 100	> 100	–	–	–	–	–	–	–	–	–
COc1cccc(C2c3cc4c(cc3OC(NNS(=O)(=O)c3ccc(C)cc3)C2C)OCO4)c1O (stereo not drawn)	32.4	> 100	39.4	51.2	> 100	70.9	> 100	> 100	34.2	68.8	–	–	–	–	–	–	–	–	–
O=C1N[C@@H]([C@H]2CC[C@H](Cl)CN2)C(=O)N[C@H]1[C@H]1CC[C@H](Cl)CN1	75.1	9.05	227	7.25	13.9	12.2	6.42	6.42	9.68	4.27	–	–	–	–	–	–	–	–	–
O=c1[nH]nc(-c2cccc([N+](=O)[O-])c2)[nH]1	> 100	> 100	> 100	> 100	> 100	> 100	> 100	> 100	> 100	> 100	–	–	–	–	–	–	–	–	–
O=C(O)c1ccccc1Sc1ccc(C=C2NC(=S)N(c3ccccc3)C2=O)s1	> 100	> 100	> 100	> 100	> 100	> 100	> 100	> 100	> 100	> 100	–	–	–	–	–	–	–	–	–
c1ccc(-c2cc(-c3ccccc3)nc(-c3ccncc3)c2)cc1	> 100	> 100	> 100	> 100	> 100	> 100	> 100	> 100	> 100	> 100	–	–	–	–	–	–	–	–	–
CCc1nnc2sc(-c3ccc(-c4ccccc4[N+](=O)[O-])o3)nn12	> 100	> 100	> 100	> 100	> 100	> 100	> 100	> 100	> 100	> 100	–	–	–	–	–	–	–	–	–
O=C(c1ccccc1)c1nn(-c2cccc(Cl)c2)c2nc3nc(-c4ccccc4)cc(=O)n3nc12	> 25	–	> 25	> 25	> 25	> 25	> 25	> 25	> 25	> 25	> 25	> 25	> 25	> 25	> 25	> 25	22.6	> 25	> 25
